This note sets out measurements from patent US9611276B2, “Imidazo bicyclic iminium compounds as antitumor agents” (THE BOARD OF TRUSTEES OF THE LELAND STANFORD JUNIOR …, priority 2012, dated 2017).

The structures appear in SMILES notation.

For one test, the system named is Hh pathway activity. Description: Sufu-KO-LIGHT cell assay, Gli-dependent firefly luciferase reporter. The settings on record: Mus musculus. The test is classed as cell-based, mouse. As for the experimental part: Sufu-KO-LIGHT cells were derived from Sufu knockout mouse embryonic fibroblasts according to the method of Chen et al. [Genes Dev. 2009; 23(16):1910-28.] The cells were co-transfected with the zeocin resistance vector (pVgRXR, Invitrogen) and a firefly luciferase reporter driven by eight Gli binding sites and a γ-crystallin basal promoter (8XGliBS-FL) [see Sasaki et al. Development. 1997; 124(7):1313-22.2]. […] Sufu-KO-LIGHT cells were cultured in DMEM (Invitrogen, 11965) containing 10% (v/v) fetal bovine serum (Invitrogen, No. 26140), 150 μg/mL zeocin (Invitrogen, R250-01), 1 mM sodium pyruvate (Invitrogen, 11360) and 1× PenStrep (Gibco, 15140).
All test compounds were dissolved in DMSO at 50 mM, serially diluted by 1:3, 1:4 or 1:5 in a 96-well translucent microplate (Greiner bio-one, 650201) and stored at −20° C. These serial dilutions were added to assay media freshly with final DMSO concentration of 0.2% (v/v).
The Sufu-KO-LIGHT cell assay provides a measure of Hh pathway activity and cytotoxicity. Sufu-KO-LIGHT cells were seeded into a 96-well plate (35,000 cells/well), cultured to confluency for 24 hrs and then incubated with test compounds in DMEM without phenol red (Invitrogen, 26140) containing 0.5% (v/v) fetal bovine serum (Invitrogen, No. 26140), 150 μg/mL zeocin (Invitrogen, R250-01), 1 mM sodium pyruvate (Invitrogen, 11360), 1× PenStrep (Gibco, 15140) for 16 hrs. Bright Glo (Promega, E2620) reagent (50 μL/well) was added to the cells, and luciferase activities were determined on a microplate luminometer (Veritas). To assess cytotoxicity, after 15 hrs of incubation with test compounds, CellTiter 96 AQueous One Solution Cell Proliferation Assay (Promega, G3580) reagent (20 μL/well) was added. Cell viability was determined by measuring absorption at 490 nm after 1 hr of incubation on a microplate spectrophotometer (Benchmark Plus, Bio-Rad). Biological triplicates were analyzed for each test compounds.
In general, IC50 refers to the concentration needed to halve the response being measured. Compound `Brc1ccc(-c2c[n+](-c3ccc4c(c3)OCCO4)c3n2CCCCC3)cc1` [Compound A-4] returned an IC50 of 5 µM.
Same read-out and setting: as for `Brc1ccc(-c2c[n+](-c3ccccc3)c3n2CCCCC3)cc1` [Compound A-2], the figure is 7.9 µM.
`FC(F)(F)c1cccc(-[n+]2cc(-c3ccc(Br)cc3)n3c2CCCCC3)c1` [Compound A-5] returned an IC50 of 12.3 µM.
On the same count and under the same terms, as for `COc1ccc(-c2c[n+](-c3ccc(Br)cc3)c3n2CCCCC3)cc1` [Compound A-15], the figure is 3.3 µM; as for `COc1ccccc1-[n+]1cc(-c2ccc(Br)cc2)n2c1CCCCC2` [Compound A-3], 0.34 µM; as for `Clc1ccc(-[n+]2cc(-c3ccc(Br)cc3)n3c2CCCCC3)cc1` [Compound A-6], 11.7 µM.

Still in this test, the particulars now being: Mus musculus; Table 1; assay not given, A-1 value equals the Sufu-KO-LIGHT value; read-out: IC50.
As to `CCOc1ccc(-c2c[n+](-c3cccc(C(F)(F)F)c3)c3n2CCCCC3)cc1` [Compound A-16], the IC50 amounted to 7.4 µM.
The same measure, in the same setting: as for `CCOc1ccc(-[n+]2cc(-c3ccc(-c4ccccc4)cc3)n3c2CCCCC3)cc1` [Compound A-8], the figure is 0.19 ± 0.14 µM; as for `CCOc1ccc(-[n+]2cc(-c3ccccc3)n3c2CCCCC3)cc1` [Compound A-9], 1.7 µM; as for `COc1ccc(-[n+]2cc(-c3ccc(Cl)cc3)n3c2CCCCC3)cc1` [Compound A-11], 2.5 µM.
Regarding `CCc1ccc(-[n+]2cc(-c3ccc(OC(F)F)cc3)n3c2CCCCC3)cc1` [Compound A-17], the IC50 is 2.9 µM.
With `CCOc1ccc(-[n+]2cc(-c3ccc(OC)cc3)n3c2CCCCC3)cc1` [Compound A-10], the IC50 worked out at 2.5 µM.
On the same count and under the same terms, as for `CCOc1ccc(-c2c[n+](-c3ccccc3OC)c3n2CCCCC3)cc1` [Compound A-18], the figure is 0.08 µM; as for `FC(F)Oc1ccc(-[n+]2cc(-c3ccc(Cl)cc3)n3c2CCCCC3)cc1` [Compound A-13], 17.5 µM; as for `COc1ccccc1-[n+]1cc(-c2ccc(-c3ccccc3)cc2)n2c1CCCCC2` [Compound A-19], 0.03 µM.
`COc1ccc(-[n+]2cc(-c3ccc(OC(F)F)cc3)n3c2CCCCC3)cc1` [Compound A-12]: the IC50 came out at 13.9 µM.
Regarding `CCOc1ccc(-[n+]2cc(-c3ccc(Cl)cc3)n3c2CCCCC3)cc1` [Compound A-7], the IC50 was 3 µM.

Still in this test, the particulars now being: Mus musculus; Table 2; assay not given; read-out: IC50.
For `COc1ccc(-c2cn3c([n+]2-c2ccccc2OC)CCCCC3)cc1` [Compound C-2], the IC50 amounted to 3.1 µM.
Still for that read-out and setting: as for `COc1ccc(-[n+]2c(-c3ccccc3)cn3c2CCCCC3)cc1` [Compound C-8], the figure is 4.1 µM.
Same read-out and setting: as for `COc1ccc(-[n+]2c(-c3ccc(OC(F)F)cc3)cn3c2CCCCC3)cc1` [Compound C-7], the figure is 6.3 µM.
On the same count and under the same terms, as for `CCOc1ccc(-c2c(C)n3c([n+]2-c2ccc(OCC)cc2)CCCCC3)cc1` [Compound C-5], the figure is 1.2 µM; as for `COc1ccc(-c2cn3c([n+]2-c2ccc(C)cc2)CCCCC3)cc1` [Compound C-3], 4.2 µM; as for `Clc1ccc(-c2cn3c([n+]2-c2ccc(Cl)cc2)CCCCC3)cc1` [Compound C-9], 27 µM.
Take `CCOc1ccc(-[n+]2c(-c3ccc(OC)cc3)cn3c2CCCCC3)cc1` [Compound C-1]: the IC50 is 1.6 µM.
Still for that read-out and setting: as for `COc1ccc(-c2cn3c([n+]2-c2ccc(Cl)cc2)CCCCC3)cc1` [Compound C-4], the figure is 11.5 µM; as for `COc1ccc(-[n+]2c(-c3ccc(Cl)cc3)cn3c2CCCCC3)cc1` [Compound C-6], 11.7 µM.

The same test, now with this note: Mus musculus; Table 3; assay not given; read-out: IC50.
With `COc1ccc(-c2c[n+](-c3ccc(OC)cc3)c3n2CCOC3)cc1` [Compound D-6], the IC50 stood at 14.1 µM.
`CCOc1ccc(-[n+]2cc(-c3ccccc3)n3c2CCC3)cc1` [Compound D-1]: the IC50 was 0.96 µM.
Same read-out and setting: as for `COc1ccc(-[n+]2cc(-c3ccc(Br)cc3)n3c2SCC3C)cc1` [Compound D-4], the figure is 2.6 µM.
Still for that read-out and setting: as for `CCOc1ccc(-c2c[n+](-c3ccc(OC)cc3)c3n2-c2ccccc2CC3)cc1.[Br-]` [Compound E-1], the figure is 0.14 µM; as for `COc1ccc(-[n+]2cc(-c3ccc(C)cc3)n3c2SC(C)C3)cc1` [Compound D-3], 1.1 µM; as for `COc1ccc(-c2c[n+](-c3ccc(OC)cc3)c3n2CCS3)cc1` [Compound D-2], 3.1 µM.
Regarding `COc1ccc(-[n+]2cc(-c3ccc(Cl)cc3)n3c2SCCC3)cc1` [Compound D-5], the 50% inhibitory concentration (IC50) is 2.4 µM.

The subject of another test is Gli2. Description: Gli2 trafficking assay in NIH 3T3 cells. The test is classed as cell-based. The settings on record: ShhN treatment. As for the experimental part:
NIH 3T3 cells were also employed in an assay to quantify Gli2 trafficking NIH-3T3 cells were seeded into 24-well plates containing poly-D-lysine-coated 12-mm glass coverslips (65,000 cells/well) and cultured for 24 hrs. […] Each compound or vehicle treatment was conducted in biological triplicates in the presence or absence of 10% (v/v) ShhN-conditioned medium. The cells were subsequently fixed in PBS containing 4% (v/v) paraformaldehyde for 12 min at room temperature, washed three times with PBS, permeabilized in PBS containing 0.5% (v/v) Triton X-100 for 5 min, and washed again twice in PBS. […] After three PBS washes, the coverslips were mounted onto slides using Prolong Gold Antifade Reagent with DAPI (Invitrogen, P36931). The cells were imaged using a Plan Apochromat 63×/1.4-0.6 oil immersion objective on an upright Leica DM4500B compound microscope. Ciliary Gli2 levels were quantified by determining total pixel intensity within a circular region manually placed at the distal end of each cilium and subtracting background fluorescence in an adjacent region of equivalent size. A total of 30 cilia from three coverslips were analyzed to determine the average ciliary Gli2 level for each experimental condition as a measure of Gli2 trafficking.
In the case of `CC1=C2C[C@H]3[C@@H](CC=C4C[C@@H](O)CC[C@@]43C)[C@@H]2CC[C@]12O[C@@H]1C[C@H](C)CN[C@H]1[C@H]2C` [cyclopamine, reference compound], the “Effect on ShhN-induced Gli2 accrual at the ciliary distal tip” value is “cyclopamine-sensitive”.

The test system of another test is medulloblastoma allograft tumors. Description: Murine medulloblastoma allograft model. Type of test: in vivo, mouse. The settings on record: 2 mg/kg/day, intraperitoneal, day 5. The protocol: Murine medulloblastoma allograft model: Ptch1+/−; p53+/−; Math1:GFP mice were mated to generate pups with the appropriate genotype of Ptch1+/−; p53−/−; Math1:GFP. These mice will get medulloblastoma tumors when they are 6 to 10 weeks of age. The primary medulloblastoma tumors were harvested, dissected, dissociated by papain treatment and tissue trituration, and injected into the flanks of nude mice as a Matrigel mixture (50 μL of 2×10^7 tumor cells mixed with 50 μL of Matrigel). Secondary and tertiary tumors can subsequently be derived from these allografts as necessary. The length, width, and depth of each allograft were monitored, and compound testing began when the tumors reached a volume of 150 mm3 (approximately one week after tumors were first visible). The compounds were dissolved in a minimum volume of DMSO, and the DMSO solution was mixed with sterile corn oil so that the DMSO constituted less than 10% of the total volume. The drug was administered by intraperitoneal injection (50 μL), with each daily dose divided into two portions and administered at 12-hour intervals. The Smoothened antagonist vismodegib was administered at 50 mg/kg/day as a positive control.
As to `CCOc1ccc(-c2c[n+](-c3ccc(OC)cc3)c3n2-c2ccccc2CC3)cc1.[Br-]` [Compound E-1], the “Tumor volume compared to control” value is given as “reduced tumor volume by half”.

In a further test the test system is BCC cell line. Put plainly: Murine basal cell carcinoma (BCC) cell proliferation. The test is classed as cell-based, mouse.
Settings: not given
An excerpt: (§1) Murine basal cell carcinomas (BCCs) were derived from Ptch1+/−; p53−/− mice subjected to UV radiation [Aszterbaum et al., Nat. Med. (1999) 5:1285-91]. A line resistant to the Smo antagonist SANT-1 was obtained by culturing the cells in media containing increasing concentrations of the inhibitor until the majority of cells were killed and resistant clones emerged.
On to `CCOc1ccc(-[n+]2cc(-c3ccc(-c4ccccc4)cc3)n3c2CCCCC3)cc1` [Compound A-8], for which the “Proliferation of original BCC cell line” value is recorded as “able to block the proliferation”.

Still in this test, the particulars now being: 750 nM, dose-dependent.
Take `CCOc1ccc(-[n+]2cc(-c3ccc(-c4ccccc4)cc3)n3c2CCCCC3)cc1` [Compound A-8]: the BCC proliferation is 20 % of control.

The next test deals with T1, Smo (Mus musculus, UniProt P56726).
T1 construct: endogenous in cells; host or cells: NIH 3T3
T1 sequence (P56726 33-793): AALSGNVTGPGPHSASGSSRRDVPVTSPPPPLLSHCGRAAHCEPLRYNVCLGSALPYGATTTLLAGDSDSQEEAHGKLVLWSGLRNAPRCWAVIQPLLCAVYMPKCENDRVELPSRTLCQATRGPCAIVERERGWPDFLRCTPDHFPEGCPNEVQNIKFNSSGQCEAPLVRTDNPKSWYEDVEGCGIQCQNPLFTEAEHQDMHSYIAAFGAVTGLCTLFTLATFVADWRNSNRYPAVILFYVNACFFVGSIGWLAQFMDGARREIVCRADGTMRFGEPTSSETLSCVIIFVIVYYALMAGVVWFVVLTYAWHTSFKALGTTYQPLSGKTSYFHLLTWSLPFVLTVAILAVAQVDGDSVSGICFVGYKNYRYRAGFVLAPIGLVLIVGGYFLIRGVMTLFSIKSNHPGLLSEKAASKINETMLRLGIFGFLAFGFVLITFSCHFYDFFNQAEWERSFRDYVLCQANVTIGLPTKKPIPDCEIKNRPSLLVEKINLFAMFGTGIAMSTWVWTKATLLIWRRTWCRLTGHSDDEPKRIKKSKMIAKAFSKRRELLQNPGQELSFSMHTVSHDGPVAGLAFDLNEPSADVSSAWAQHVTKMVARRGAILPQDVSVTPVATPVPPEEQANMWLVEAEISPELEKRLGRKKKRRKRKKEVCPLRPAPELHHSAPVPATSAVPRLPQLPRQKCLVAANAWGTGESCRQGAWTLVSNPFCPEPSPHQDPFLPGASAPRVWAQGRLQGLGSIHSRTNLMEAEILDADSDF
Put plainly: Smo trafficking assay in NIH 3T3 cells. Type of test: cell-based. The conditions noted are these: Hh-responsive cells, ShhN stimulation. An excerpt: The cells were imaged using a Plan Apochromat 63×/1.4-0.6 oil immersion objective on an upright Leica DM4500B compound microscope.
On to `CC1=C2C[C@H]3[C@@H](CC=C4C[C@@H](O)CC[C@@]43C)[C@@H]2CC[C@]12O[C@@H]1C[C@H](C)CN[C@H]1[C@H]2C` [cyclopamine, reference compound], for which the “Effect on Smo localization / trafficking” value is on record as “alters Smo trafficking”.

For the next test, the system named is BCC allograft tumors. Put plainly: Murine BCC allograft model. Type of test: in vivo, mouse. The conditions noted are these: 0.01% solution, topical, day 14. The protocol: Murine BCC allograft model: Ptch1+/−; K14:Cre-ER2; p53fl/fl mice were injected with tamoxifen (to knock out p53) at six weeks of age, and at 8 weeks of age they were given one dose of 4 Gy of ionizing radiation. After BCCs formed and grew to 5-7 mm in diameter (typically between 6-8 months of age), they were harvested and dissociated to prepare a cell suspension. A mixture of the cell suspension and Matrigel was then injected subcutaneously into NOD/SCID mice purchased from Jackson Laboratories. Once the allografted tumors became visible, they were monitored with digital calipers and the volume was estimated by the formula (d^2)*D/2, where d is the smallest diameter of the tumor and D is the largest diameter. The compound was applied topically to the tumor as a DMSO solution (100 μL per application).
As for `CCOc1ccc(-[n+]2cc(-c3ccc(-c4ccccc4)cc3)n3c2CCCCC3)cc1` [Compound A-8], the “Tumor volume compared to control” value is “reduced tumor volume by half”.

For a further test, the system named is SANT-1-resistant BCC line. Put plainly: Proliferation of SANT-1-resistant BCC line. Type of test: cell-based, mouse.
Settings: not given
Excerpt: as §1
As to `CCOc1ccc(-[n+]2cc(-c3ccc(-c4ccccc4)cc3)n3c2CCCCC3)cc1` [Compound A-8], the “Proliferation of SANT-1-resistant line” value is “able to block the proliferation”.
